Data from paper PMC9927415, “Tyrosine Kinase Inhibitors Display Potent Activity against Cryptosporidium parvum” (Microbiology Spectrum, 2022).

Experiments:
Experiment in all cases: KINOMEscan competitive binding, whole panel
[1] = molecular target: T1, panel of 203 kinases (Homo sapiens, UniProt O94804); conditions: 10 µM, n=1; kinase LOK; read-out: Percent inhibition LOK
T1 construct: purchased DiscoverX (KINOMEscan)
Outline: (§1)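 Kinases were expressed as T7 bacteriophage fusions, and test compounds competed with immobilized ATP-site probe ligands for binding. Kinase remaining bound to the solid-support probe was quantified, and values are given as percentage inhibition.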

[2] = molecular target: T2, panel of 203 kinases (Homo sapiens, UniProt P36896); conditions: 10 µM, n=1; kinase ACVR1B; read-out: Percent inhibition ACVR1B
T2 construct: purchased DiscoverX (KINOMEscan)
T2 sequence (P36896 24-505): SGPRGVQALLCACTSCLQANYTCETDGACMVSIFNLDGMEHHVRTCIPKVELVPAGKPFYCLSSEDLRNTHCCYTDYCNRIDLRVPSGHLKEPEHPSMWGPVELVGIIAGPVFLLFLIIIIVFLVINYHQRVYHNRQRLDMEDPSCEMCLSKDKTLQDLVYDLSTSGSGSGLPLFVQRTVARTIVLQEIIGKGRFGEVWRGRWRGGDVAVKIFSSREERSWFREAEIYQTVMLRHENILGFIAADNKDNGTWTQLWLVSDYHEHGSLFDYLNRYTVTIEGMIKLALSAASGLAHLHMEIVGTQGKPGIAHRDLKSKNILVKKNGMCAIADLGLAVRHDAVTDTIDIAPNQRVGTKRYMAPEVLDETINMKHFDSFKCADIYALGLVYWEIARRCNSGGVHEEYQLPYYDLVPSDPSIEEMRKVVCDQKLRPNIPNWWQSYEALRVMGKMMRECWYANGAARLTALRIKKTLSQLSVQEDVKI
Outline: as §1

[3] = molecular target: T3, panel of 203 kinases (Homo sapiens, UniProt O15146); conditions: 10 µM, n=1; kinase MUSK; read-out: Percent inhibition MUSK
T3 construct: purchased DiscoverX (KINOMEscan)
T3 sequence (O15146 24-869): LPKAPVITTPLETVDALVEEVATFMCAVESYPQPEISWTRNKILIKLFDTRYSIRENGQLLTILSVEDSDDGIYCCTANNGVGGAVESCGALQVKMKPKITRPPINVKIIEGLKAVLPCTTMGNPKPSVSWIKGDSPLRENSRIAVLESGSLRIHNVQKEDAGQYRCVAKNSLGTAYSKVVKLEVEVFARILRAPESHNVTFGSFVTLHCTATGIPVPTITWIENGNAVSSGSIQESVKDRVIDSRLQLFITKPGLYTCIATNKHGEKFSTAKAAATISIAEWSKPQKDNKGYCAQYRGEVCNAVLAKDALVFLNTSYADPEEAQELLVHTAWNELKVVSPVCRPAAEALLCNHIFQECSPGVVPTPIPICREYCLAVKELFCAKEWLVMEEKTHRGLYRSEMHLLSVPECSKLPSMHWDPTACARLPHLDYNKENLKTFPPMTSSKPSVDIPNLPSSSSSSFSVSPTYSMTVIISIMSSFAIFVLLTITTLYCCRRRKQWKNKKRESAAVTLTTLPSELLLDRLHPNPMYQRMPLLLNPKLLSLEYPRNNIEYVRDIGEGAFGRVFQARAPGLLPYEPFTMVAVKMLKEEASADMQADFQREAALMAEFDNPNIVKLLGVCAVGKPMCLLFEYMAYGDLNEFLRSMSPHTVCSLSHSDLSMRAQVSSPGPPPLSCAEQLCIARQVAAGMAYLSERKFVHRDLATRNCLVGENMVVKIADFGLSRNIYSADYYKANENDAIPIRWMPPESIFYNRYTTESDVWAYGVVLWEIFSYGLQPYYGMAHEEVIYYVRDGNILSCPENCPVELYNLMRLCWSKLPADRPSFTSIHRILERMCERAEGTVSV
Outline: as §1

[4] = molecular target: T4, panel of 203 kinases (Homo sapiens, UniProt P29320); conditions: 10 µM, n=1; kinase EPHA3; read-out: Percent inhibition EPHA3
T4 construct: purchased DiscoverX (KINOMEscan)
T4 sequence (P29320 21-983): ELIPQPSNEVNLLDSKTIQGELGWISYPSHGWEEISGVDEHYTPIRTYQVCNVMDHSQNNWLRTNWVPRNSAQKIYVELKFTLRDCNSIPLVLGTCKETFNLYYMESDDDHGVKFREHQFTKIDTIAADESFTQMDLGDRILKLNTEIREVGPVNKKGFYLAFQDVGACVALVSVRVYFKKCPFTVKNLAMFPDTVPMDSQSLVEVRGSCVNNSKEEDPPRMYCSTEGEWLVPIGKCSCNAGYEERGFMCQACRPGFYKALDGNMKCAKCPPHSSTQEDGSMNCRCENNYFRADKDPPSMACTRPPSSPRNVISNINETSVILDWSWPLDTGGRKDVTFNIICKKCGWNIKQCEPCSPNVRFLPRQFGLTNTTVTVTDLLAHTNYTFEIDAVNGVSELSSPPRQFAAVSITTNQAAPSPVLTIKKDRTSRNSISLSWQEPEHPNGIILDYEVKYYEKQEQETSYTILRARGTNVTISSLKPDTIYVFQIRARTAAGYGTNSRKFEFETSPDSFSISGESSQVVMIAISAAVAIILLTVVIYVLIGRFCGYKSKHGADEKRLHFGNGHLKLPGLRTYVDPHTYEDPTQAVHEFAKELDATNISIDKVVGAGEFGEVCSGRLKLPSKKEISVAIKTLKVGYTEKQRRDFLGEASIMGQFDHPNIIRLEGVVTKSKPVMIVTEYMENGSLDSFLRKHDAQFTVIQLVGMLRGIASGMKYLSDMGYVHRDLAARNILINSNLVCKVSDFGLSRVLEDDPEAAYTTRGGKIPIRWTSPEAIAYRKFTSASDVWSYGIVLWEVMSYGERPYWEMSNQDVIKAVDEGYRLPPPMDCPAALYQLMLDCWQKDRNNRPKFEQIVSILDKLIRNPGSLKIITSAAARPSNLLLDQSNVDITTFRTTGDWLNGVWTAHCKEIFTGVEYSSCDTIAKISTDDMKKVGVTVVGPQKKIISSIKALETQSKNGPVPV
Outline: as §1

T1 sequence (O94804 whole entry): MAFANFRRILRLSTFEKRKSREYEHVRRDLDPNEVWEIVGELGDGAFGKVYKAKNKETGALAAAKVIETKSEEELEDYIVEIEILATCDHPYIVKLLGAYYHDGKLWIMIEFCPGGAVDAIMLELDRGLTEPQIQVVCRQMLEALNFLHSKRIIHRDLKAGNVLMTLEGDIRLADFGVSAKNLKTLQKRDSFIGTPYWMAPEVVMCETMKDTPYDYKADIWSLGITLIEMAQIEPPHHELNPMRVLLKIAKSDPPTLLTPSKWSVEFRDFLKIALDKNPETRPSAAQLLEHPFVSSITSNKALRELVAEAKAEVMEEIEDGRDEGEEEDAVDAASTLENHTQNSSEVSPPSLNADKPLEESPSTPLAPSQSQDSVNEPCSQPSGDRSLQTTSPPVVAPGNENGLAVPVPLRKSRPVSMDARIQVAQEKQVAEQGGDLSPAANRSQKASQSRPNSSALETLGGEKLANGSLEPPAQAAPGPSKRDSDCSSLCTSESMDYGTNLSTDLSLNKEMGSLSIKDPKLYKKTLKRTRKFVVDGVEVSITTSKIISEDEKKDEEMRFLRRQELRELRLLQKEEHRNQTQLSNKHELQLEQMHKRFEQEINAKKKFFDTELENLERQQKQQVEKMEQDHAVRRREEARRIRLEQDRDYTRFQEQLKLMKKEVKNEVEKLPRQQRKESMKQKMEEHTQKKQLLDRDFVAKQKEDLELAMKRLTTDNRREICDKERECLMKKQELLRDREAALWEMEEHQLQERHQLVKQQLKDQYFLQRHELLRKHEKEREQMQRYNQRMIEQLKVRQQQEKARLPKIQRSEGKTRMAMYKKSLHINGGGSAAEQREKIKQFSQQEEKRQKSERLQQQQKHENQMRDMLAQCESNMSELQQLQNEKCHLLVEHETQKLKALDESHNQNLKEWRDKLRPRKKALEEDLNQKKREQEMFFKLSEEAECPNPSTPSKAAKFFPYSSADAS

SMILES | inhibition at 10 µM [1] [%] | inhibition at 10 µM [2] [%] | inhibition at 10 µM [3] [%] | inhibition at 10 µM [4] [%]
CN1CCN(c2ccc(Nc3nccc(-c4cnn5ncccc45)n3)cc2C#N)CC1 [Compound 1] | 88.7 | 77.1 | 98.8 | 98
COc1ccc(Nc2nccc(-c3cnn4ncccc34)n2)cc1 [Compound 2] | 0 | 0 | 74.8 | 85
Cc1ccc(O)cc1Nc1ccnc(Nc2cccc(C(N)=O)c2)n1 [Compound 3] | 82.6 | 96.5 | 0 | 100
Cc1ccc(O)cc1N(C)c1ccnc(Nc2cccc(S(N)(=O)=O)c2)n1 [Compound 4] | 99.6 | 99 | 0 | 100
Fc1cccc(COc2ccc(Nc3ncnc4c3CN(CCN3CCOCC3)CC4)cc2Cl)c1 [Compound 6] | 0 | 0 | 0 | 0
COc1cc(Nc2nccc(-c3sc(N)nc3-c3cccc(NC(=O)c4c(F)cccc4F)c3)n2)cc(OC)c1OC [Compound 7] | 100 | 74.9 | 97.2 | 99.7
C[C@@H](Oc1cc(-c2cnc3ccccn23)sc1C(N)=O)c1ccccc1Cl [Compound 8] | 100 | 0 | 0 | 0
c1ccc(COc2cccc(-c3ccnc4[nH]ccc34)c2)cc1 [Compound 9] | 0 | 0 | 0 | 0
Clc1ccc(Nc2ncc(-c3ccccc3)s2)cc1 [Compound 10] | 0 | 0 | 0 | 0
Nc1ncc2c(-c3ccncc3)c[nH]c2n1 [Compound 11] | 0 | 0 | 93.9 | 94.6
